The numbers were not newly measured in patent publication US12285521B2, “Pharmaceutical formulation” (Klaria Pharma Holding AB, priority 2016, dated 2025), which cites them from elsewhere.

In data set [1] the test system is migraine. The following applies: to be achieved within 60 minutes after dosing.
Data set [2] deals with migraine. The following applies: subcutaneous administration, 6 mg sumatriptan.

For `CNS(=O)(=O)Cc1ccc2[nH]cc(CCN(C)C)c2c1` [sumatriptan], the “time of maximum plasma concentration” value (after intranasal administration) is 1 to 1.5 h. For the same molecule, where the note is “intranasal, after a 20 mg dose”, the mean intranasal bioavailability is 15.8% and the mean maximum concentration is 12.9 ng/mL. In addition, in the data set with migraine [1], the “plasma level for the most reliable migraine-relieving effect” value is on record as “over 9.44 ng/mL”. Also, the “people with pain reduced from moderate or severe to none within two hours” value in the data set on migraine [2] is about 60%.
